Experiments:
Assay in all cases: in vitro antibacterial evaluation, MIC by broth dilution
Assay type in all cases: cell-based
Staphylococcus sp. = conditions: broth dilution, 18 hours at 35° C.
Outline: (§1)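 MIC, the lowest antibiotic concentration preventing growth, was read across 64-0.06 μg/mL with 5×10^5 CFU/mL inoculum. Method followed NCCLS M7-A2 broth dilution using Mueller-Hinton II; Gram-positive strains covered recent methicillin-, penicillin- and/or vancomycin-resistant clinical isolates.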

Streptococcus sp. = conditions: broth dilution, 18 hours at 35° C.
Outline: as §1

Enterococcus sp. = conditions: broth dilution, 18 hours at 35° C.
Outline: as §1

Escherichia coli = conditions: 18 hours at 35° C.

COc1ccc(COCC2OC(OC3C(CO)OC(Oc4ccc(CC5NC(=O)C(C(C)c6ccccc6)NC(=O)CNC(=O)C(CO)NC(=O)C(C(O)C6CNC(=N)N6C6OC(CO)C(O)C(O)C6O)NC(=O)C(C(O)C6CNC(=N)N6)NC5=O)cc4)C(O)C3O)C(O)C(O)C2O)cc1F (stereo not shown) [Example 237]
64 µg/mL: MIC Escherichia coli (ATCC 25922) (Escherichia coli) | MIC Escherichia coli (GC 4559) (Escherichia coli)
8 µg/mL: MIC Staphylococcus aureus (GC 4542) (Staphylococcus sp.) | MIC Staphylococcus aureus (GC 4542) (Staphylococcus sp.; strain GC 4542)
32 µg/mL: MIC Enterococcus faecalis (GC 3059) (Enterococcus sp.) | MIC Enterococcus faecalis (GC 4554) (Enterococcus sp.) | MIC Enterococcus faecalis (GC 4554) (Enterococcus sp.; strain GC 4554) | MIC Enterococcus faecalis (GC 3059) (Enterococcus sp.; inoculum 5×10^5 CFU/mL, strain GC 3059)
1 µg/mL: MIC Coagulase Negative Staphylococcus (GC 4548) (Staphylococcus sp.) | MIC Coagulase Negative Staphylococcus (GC 4549) (Staphylococcus sp.) | MIC Coagulase Negative Staphylococcus (GC 6257) (Staphylococcus sp.) | MIC Staphylococcus haemolyticus (GC 4546) (Staphylococcus sp.) | MIC Staphylococcus haemolyticus (GC 4546) (Staphylococcus sp.; strain GC 4546) | MIC Coagulase Negative Staphylococcus (GC 4548) (Staphylococcus sp.; strain GC 4548) | MIC Coagulase Negative Staphylococcus (GC 4549) (Staphylococcus sp.; strain GC 4549) | MIC Coagulase Negative Staphylococcus (GC 6257) (Staphylococcus sp.; strain GC 6257) | MIC Streptococcus pyogenes (GC 4563) (Streptococcus sp.) | MIC Streptococcus pyogenes (GC 4563) (Streptococcus sp.; inoculum 5×10^5 CFU/mL, strain GC 4563) | MIC Escherichia coli (GC 4560) (Escherichia coli)
16 µg/mL: MIC Enterococcus avium (GC 4558) (Enterococcus sp.) | MIC Enterococcus faecalis (ATCC 29212) (Enterococcus sp.) | MIC Enterococcus faecalis (GC 2242) (Enterococcus sp.) | MIC Enterococcus faecalis (GC 2691) (Enterococcus sp.) | MIC Enterococcus faecalis (GC 4552) (Enterococcus sp.) | MIC Enterococcus faecalis (GC 4553) (Enterococcus sp.) | MIC Enterococcus faecalis (GC 6189) (Enterococcus sp.) | MIC Enterococcus faecium (GC 2243) (Enterococcus sp.) | MIC Enterococcus faecium (GC 4556) (Enterococcus sp.) | MIC Enterococcus faecalis (ATCC 29212) (Enterococcus sp.; strain ATCC 29212) | MIC Enterococcus faecium (GC 2243) (Enterococcus sp.; strain GC 2243) | MIC Enterococcus faecalis (GC 4552) (Enterococcus sp.; strain GC 4552) | MIC Enterococcus faecalis (GC 4553) (Enterococcus sp.; strain GC 4553) | MIC Enterococcus faecium (GC 4556) (Enterococcus sp.; strain GC 4556) | MIC Enterococcus avium (GC 4558) (Enterococcus sp.; strain GC 4558) | MIC Enterococcus faecalis (GC 6189) (Enterococcus sp.; strain GC 6189) | MIC Enterococcus faecalis (GC 2242) (Enterococcus sp.; inoculum 5×10^5 CFU/mL, strain GC 2242) | MIC Enterococcus faecalis (GC 2691) (Enterococcus sp.; inoculum 5×10^5 CFU/mL, strain GC 2691)
2 µg/mL: MIC Coagulase Negative Staphylococcus (GC 4547) (Staphylococcus sp.) | MIC Staphylococcus aureus (GC 3051) (Staphylococcus sp.) | MIC Staphylococcus aureus (GC 4541) (Staphylococcus sp.) | MIC Staphylococcus aureus (GC 4545) (Staphylococcus sp.) | MIC Staphylococcus aureus-SMITH (GC 4543) (Staphylococcus sp.) | MIC Staphylococcus aureus (GC 3051) (Staphylococcus sp.; strain GC 3051) | MIC Staphylococcus aureus (GC 4541) (Staphylococcus sp.; strain GC 4541) | MIC Staphylococcus aureus-SMITH (GC 4543) (Staphylococcus sp.; strain GC 4543) | MIC Staphylococcus aureus (GC 4545) (Staphylococcus sp.; strain GC 4545) | MIC Coagulase Negative Staphylococcus (GC 4547) (Staphylococcus sp.; strain GC 4547) | MIC Streptococcus agalactiae (GC 4564) (Streptococcus sp.) | MIC Streptococcus agalactiae (GC 4564) (Streptococcus sp.; inoculum 5×10^5 CFU/mL, strain GC 4564)
0.5 µg/mL: MIC Streptococcus pneumoniae (ATCC 6301) (Streptococcus sp.) | MIC Streptococcus pneumoniae (GC 4565) (Streptococcus sp.) | MIC Streptococcus pneumoniae (ATCC 6301) (Streptococcus sp.; inoculum 5×10^5 CFU/mL, strain ATCC 6301) | MIC Streptococcus pneumoniae (GC 4565) (Streptococcus sp.; inoculum 5×10^5 CFU/mL, strain GC 4565)
4 µg/mL: MIC Coagulase Negative Staphylococcus (GC 4551) (Staphylococcus sp.) | MIC Staphylococcus aureus (ATCC 29213) (Staphylococcus sp.) | MIC Staphylococcus aureus (GC 1131) (Staphylococcus sp.) | MIC Staphylococcus aureus (GC 3053) (Staphylococcus sp.) | MIC Staphylococcus aureus (GC 4544) (Staphylococcus sp.) | MIC Staphylococcus aureus (ATCC 29213) (Staphylococcus sp.; strain ATCC 29213) | MIC Staphylococcus aureus (GC 1131) (Staphylococcus sp.; strain GC 1131) | MIC Staphylococcus aureus (GC 3053) (Staphylococcus sp.; strain GC 3053) | MIC Staphylococcus aureus (GC 4544) (Staphylococcus sp.; strain GC 4544) | MIC Coagulase Negative Staphylococcus (GC 4551) (Staphylococcus sp.; strain GC 4551) | MIC Enterococcus faecium (GC 4557) (Enterococcus sp.) | MIC Enterococcus faecium (GC 4557) (Enterococcus sp.; strain GC 4557)
0.25 µg/mL: MIC Streptococcus pneumoniae (GC 1894) (Streptococcus sp.) | MIC Streptococcus pneumoniae (GC 1894) (Streptococcus sp.; inoculum 5×10^5 CFU/mL, strain GC 1894)

Reference: US6914045B2, “Glycopeptide antibiotics” (Wyeth Holdings Corporation, priority 2001, dated 2005)
